Reference: the NIST ThermoML archive (doi:10.1016/j.jct.2017.10.016)

Experiment: xn = mol fraction of the nth substance listed
Details: Liquid, Buoyancy - hydrostatic balance with magnetic suspension - one sinker

C=C(F)C(F)(F)F [2,3,3,3-tetrafluoro-1-propene] + CCC
Details	mass density [kg/m3]
255.05 K, x1 = 0.217	705.65
255.24 K, x1 = 0.322	772.45
257.01 K, x1 = 0.422	831.62
259.89 K, x1 = 0.322	763.53
259.9 K, x1 = 0.533	897.69
260.22 K, x1 = 0.217	695.43
260.27 K, x1 = 0.422	825.19
264.82 K, x1 = 0.322	754.19
264.85 K, x1 = 0.533	887.37
264.95 K, x1 = 0.217	686.56
265.38 K, x1 = 0.422	815.01
269.81 K, x1 = 0.533	876.78
269.89 K, x1 = 0.217	677.65
269.95 K, x1 = 0.322	744.13
270.15 K, x1 = 0.422	805.93
270.16 K, x1 = 0.113	610.61
274.77 K, x1 = 0.533	865.74
274.83 K, x1 = 0.217	668.53
274.96 K, x1 = 0.113	602.76
275.02 K, x1 = 0.625	920.19
275.16 K, x1 = 0.422	794.82
275.2 K, x1 = 0.322	733.29
279.91 K, x1 = 0.217	658.85
279.98 K, x1 = 0.422	784.38
280.01 K, x1 = 0.113	594.34
280.03 K, x1 = 0.322	723.1
280.14 K, x1 = 0.625	907.78
280.17 K, x1 = 0.533	852.23
284.9 K, x1 = 0.322	712.55
284.91 K, x1 = 0.217	649.05
284.93 K, x1 = 0.113	585.81
284.95 K, x1 = 0.533	840.56
284.97 K, x1 = 0.422	774.16
285.18 K, x1 = 0.625	895.02
289.94 K, x1 = 0.533	828.05
289.97 K, x1 = 0.422	762.51
290 K, x1 = 0.533	827.87
290.02 K, x1 = 0.113	576.78
290.02 K, x1 = 0.217	638.62
290.08 K, x1 = 0.322	700.83
290.11 K, x1 = 0.625	882
294.96 K, x1 = 0.322	689.46
294.96 K, x1 = 0.422	750.87
294.97 K, x1 = 0.533	815.76
295 K, x1 = 0.113	567.56
295.22 K, x1 = 0.625	868.11
299.04 K, x1 = 0.422	742.17
299.86 K, x1 = 0.113	558.16
299.91 K, x1 = 0.533	803.63
300.13 K, x1 = 0.625	854.48
